Assay results reported in patent US20240300945A1, “CLY SERIES COMPOUND, PREPARATION METHOD THEREFOR AND USE THEREOF IN PREPARATION OF DRUGS” (NANJING WELLBEST PHARMACEUTICAL CO., LTD, priority 2021, published 2024).

Experiments:
[1] = tested on: skin hair follicles and sebaceous glands of rats; assay: Rat hair loss model: histopathological grading of skin hair follicles and sebaceous glands; type: in vivo, Wistar rats; conditions: 60 days, 10 rats per group; for number of rats with hair follicle and sebaceous gland grade +++: grade +++ (most severe); for number of rats with hair follicle and sebaceous gland grade ±: grade ± (lesions limited); for number of rats with hair follicle and sebaceous gland grade −: grade − (normal structure)
Source text: Wistar rats were, according to weights, randomly divided into the negative control group (75% ethanol for external use), model group (75% ethanol for external use), positive control group (external 5% minoxidil tincture), CLY-1 external treatment group (external 5% CLY-1 tincture), CLY-2 external treatment group (external 5% CLY-2 tincture), CLY-3 external treatment group (external 5% CLY-3 tincture), CLY-4 external treatment group (external 5% CLY-4 tincture), and CLY-5 external treatment group (external 5% CLY-5 tincture) according to their body weight CLY-8 external treatment group (external 5% CLY-8 tincture), CLY-11 external treatment group (external 5% CLY-11 tincture), CLY-19 external treatment group (external 5% CLY-19 tincture), CLY-36 external treatment group (external 5% CLY-36 tincture), CLY-39 external treatment group (external 5% CLY-39 tincture), CLY-1 intravenous injection group (2 mg/kg·d), CLY-3 intravenous injection group (2 mg/kg·d), CLY-4 intravenous injection group (2 mg/kg·d) CLY-5 intravenous injection group (2 mg/kg·d), CLY-8 intravenous injection group (2 mg/kg·d), CLY-11 intravenous injection group (2 mg/kg·d), CLY-19 intravenous injection group (2 mg/kg·d), CLY-36 intravenous injection group (2 mg/kg·d), and CLY-39 intravenous injection group (2 mg/kg·d), with 10 rats in each group. Before the experiment, an area of 4 cm×5 cm was selected on each rat on the back of the neck to remove hair as the observation area. In addition to the negative control group, rats were subcutaneously injected with testosterone propionate injection [5 ml/(kg·d)] once a day for 60 days to establish the androgenic alopecia (AGA) model. […] At the same time, the drug was applied to the observation area on the back of the rats in the corresponding drug group at the rate of 2 mL/(one time), twice a day, at an interval of 8 hours; Intravenous administration once a day. The negative control group and the model control group were smeared with 75% ethanol solution, 2 mL/(one rat per time), twice a day, for 60 days.
Took 10 hairs from the observation area on the back of each rat every 15 days after administration, and measured the hair length with a vernier caliper. After 60 days of administration, the skin of the experimental observation area was taken for routine tissue dehydration, paraffin embedding, HE staining, and light microscopy to observe the histopathological changes of the rat skin hair follicles and sebaceous glands. Semi-quantitative analysis was performed for each group. The grading criteria are as follows: the normal structure of dermal tissue cells, subcutaneous hair follicles, and sebaceous glands is marked as […]: no hyperplasia of dermal tissue is found, the lesions of hair follicles and sebaceous glands are limited, and no inflammation is found under the skin is marked as “+”: no obvious hyperplasia of dermal tissue is found, and the follicles are obviously cystic. No obvious hyperplasia of sebaceous glands is found, and no inflammation is found under the skin is marked as “+”: the dermal tissue has segmental hyperplasia, which is not obvious, A small number of hair follicles have cystic changes, and the sebaceous glands have mild hyperplasia and hypertrophy. There is no obvious inflammation under the skin, which is marked as “++”: the dermal tissue cells of the skin have different degrees of segmental hyperplasia, and some hair follicles have cystic changes, showing uneven size of hair follicles, and no cells around. The sebaceous glands have hyperplasia, and the nuclei in the proliferative glands are few. A few rats have mild inflammatory hyperplasia under the skin, which is marked as “+++”.

[2] = tested on: serum IL-4; assay: Mouse eczema model: serum IL-4 (ELISA); type: in vivo, C57BL/6 mice; conditions: after modeling, 0.1% cream for external use twice a day, 10 days (positive: aloxone)
Source text: SPF grade female C57BL/6 mice were purchased at the age of 8 weeks (0.02 kg), 6 in each group, and randomly divided into the blank control group, model group, positive drug group, CLY-1 treatment group (0.1% CLY-1 cream for external use), CLY-2 treatment group (0.1% CLY-2 cream for external use), CLY-3 treatment group (0.1% CLY-3 cream for external use), CLY-4 treatment group (0.1% CLY-4 cream for external use), CLY-8 treatment group (0.1% CLY-8 cream for external use), CLY-11 treatment group (0.1% CLY-11 cream for external use) CLY-19 treatment group (0.1% CLY-19 cream for external use), CLY-36 treatment group (0.1% CLY-36 cream for external use) and CLY-39 treatment group (0.1% CLY-39 cream for external use).
Model establishment: the normal control group mice were smeared with 75% ethanol 14.3 ul on both ears, while the model group, positive drug group and treatment group were smeared with 1 nmol/L carpotriol liniment 14.3 ul on both ears at a regular time every day, and then smeared with 20 g/L OVA 25 ul after air drying, once a day, for 12 days to make a model.
From 4 days after the start of modeling, applied the cream matrix on the ear skin of mice in the blank control group and the model group, applied aloxone on the ear skin of mice in the positive drug group, and applied the treatment cream on the ear skin of mice in each treatment group respectively, twice a day in the morning and evening, for 10 consecutive days, took photos every day, and recorded scores.
The thickness of mouse auricle was measured and recorded with ear thickness measuring instrument before and on the 14th day respectively. After the measurement on the 14th day, the mice were sacrificed. Blood was taken and serum was separated.
The enzyme-labeled plate was coated with rabbit anti-mouse interleukin (IL)-4 antibody, stayed at 4° C. overnight, and the reaction was stopped according to the instructions of the ELISA kit to detect the level of serum IL-4. ELISA kits were all purchased from Raybiotech, USA.

SMILES | number of rats with hair follicle and sebaceous gland grade +++ ([1]; external 5% tincture) | number of rats with hair follicle and sebaceous gland grade +++ ([1]; intravenous 2 mg/kg·d) | number of rats with hair follicle and sebaceous gland grade ++ ([1]; external 5% tincture) | number of rats with hair follicle and sebaceous gland grade ++ ([1]; intravenous 2 mg/kg·d) | number of rats with hair follicle and sebaceous gland grade + ([1]; external 5% tincture) | number of rats with hair follicle and sebaceous gland grade + ([1]; intravenous 2 mg/kg·d) | number of rats with hair follicle and sebaceous gland grade ± ([1]; external 5% tincture) | number of rats with hair follicle and sebaceous gland grade ± ([1]; intravenous 2 mg/kg·d) | number of rats with hair follicle and sebaceous gland grade − ([1]; external 5% tincture) | number of rats with hair follicle and sebaceous gland grade − ([1]; intravenous 2 mg/kg·d) | IL-4 level in peripheral blood [2] [pg/mL]
O=C(c1ccc(-c2ccccc2Cl)cc1)N(c1ncccc1Cl)[C@@H]1CCCNC1 [CLY-36] | 0 | 0 | 3 | 3 | 2 | 1 | 5 | 6 | 0 | 0 | 5.86
Nc1ccccc1-c1ccc(C(=O)N(c2ncccc2Cl)[C@@H]2CCCNC2)cc1 [CLY-39] | 0 | 0 | 1 | 1 | 3 | 2 | 6 | 7 | 0 | 0 | 5.75
